One may read the EC50 as the midpoint of the concentration-response curve.

This passage reports EC50 results from patent publication US20170121344A1 (Siga Technologies, Inc., priority 2009, published 2017).

The test system of one assay is Dengue-2 (Strain New Guinea C). Kind of assay: Viral yield assay against Dengue-2 in Vero cells. It counts as cell-based, Dengue virus. The conditions noted are these: Dengue virus, Vero, 48 h, read-out: Activity (EC50 class) against Dengue-2 Virus in Vero cells. An outline of the steps: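 Vero cells were infected with dengue virus at an MOI of 0.1, treated with compound or DMSO vehicle, and kept at 37° C. Supernatant virus was harvested 48 hours post infection and titered on Vero cells, with EC50 derived from yield reduction.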
Regarding `CC1(C)Cc2c(c(N3CCOCC3)nc3sc(C(N)=O)c(N)c23)CO1` [Compound 169, 1-Amino-8,8-dimethyl-5-morpholin-4-yl-8,9-dihydro-6H-7-oxa-3-thia-4-aza-cyclopenta[a]naphthalene-2-carboxylic acid amide], the EC50 was over 25 µM.

`COc1ccc(-c2c(C#N)c(N)nc3sc(C(N)=O)c(N)c23)cc1OC` [Compound 170, 3,6-Diamino-5-cyano-4-(3,4-dimethoxy-phenyl)-thieno[2,3-b]pyridine-2-carboxylic acid amide]: the EC50 was over 25 µM.

In the case of `NC(=O)c1sc2nc(N3CCOCC3)c3c(c2c1N)CCCC3` [Compound 171, 1-Amino-5-morpholin-4-yl-6,7,8,9-tetrahydro-thieno[2,3-c]isoquinoline-2-carboxylic acid amide], the EC50 was over 25 µM.

`Cc1cc(C)c2c(N)c(C(=O)Nc3ccc(Br)cc3)sc2n1` [Compound 172, 3-Amino-4,6-dimethyl-thieno[2,3-b]pyridine-2-carboxylic acid (4-bromo-phenyl)-amide]: the EC50 is over 25 µM.

Regarding `COCc1cc(C)nc2sc(C(=O)NC3CCCCC3)c(N)c12` [Compound 176, 3-Amino-4-methoxymethyl-6-methyl-thieno[2,3-b]pyridine-2-carboxylic acid cyclohexylamide], the EC50 is over 25 µM.

With `Cc1cc(C)c2c(N)c(C(=O)Nc3ccccc3F)sc2n1` [Compound 178, 3-Amino-4,6-dimethyl-thieno[2,3-b]pyridine-2-carboxylic acid (2-fluoro-phenyl)-amide], the half-maximal effective concentration (EC50) is over 25 µM.

In the case of `Cc1cccc(NC(=O)c2sc3nc4c(cc3c2N)CCC4)c1C` [Compound 179, 3-Amino-6,7-dihydro-5H-cyclopenta[b]thieno[3,2-e]pyridine-2-carboxylic acid (2,3-dimethyl-phenyl)-amide], the 50% effective concentration (EC50) is over 25 µM.

In the case of `Nc1c(C(=O)Nc2ccccc2F)sc2nc3c(cc12)CCC3` [Compound 180, 3-Amino-6,7-dihydro-5H-cyclopenta[b]thieno[3,2-e]pyridine-2-carboxylic acid (2-fluoro-phenyl)-amide], the EC50 is over 25 µM.

As for `Cc1cc(C)c2c(N)c(C(=O)Nc3cccc(C)c3C)sc2n1` [Compound 181, 3-Amino-4,6-dimethyl-thieno[2,3-b]pyridine-2-carboxylic acid (2,3-dimethyl-phenyl)-amide], the EC50 was over 25 µM.

For the molecule `O=c1[nH]cnc2c1sc1nc(N3CCOCC3)c3c(c12)CCCC3` [Compound 182, 5-Morpholin-4-yl-1,2,3,4-tetrahydro-9H-7-thia-6,9,11-triaza-benzo[c]fluoren-8-one], the 50% effective concentration (EC50) is over 25 µM.

Take `COc1ccc(NC(=O)c2sc3nc4c(cc3c2N)CCC4)cc1` [Compound 184, 3-Amino-6,7-dihydro-5H-cyclopenta[b]thieno[3,2-e]pyridine-2-carboxylic acid (4-methoxy-phenyl)-amide]: the EC50 is over 25 µM.

In the case of `Nc1c(C(=O)N2CCOCC2)sc2nc3c(cc12)CCCC3` [Compound 187, (3-Amino-5,6,7,8-tetrahydro-thieno[2,3-b]quinolin-2-yl)-morpholin-4-yl-methanone], the EC50 is over 25 µM.

`COCc1cc(C)nc2sc(C(=O)Nc3ccc(Br)c(Cl)c3)c(N)c12` [Compound 197, 3-Amino-4-methoxymethyl-6-methyl-thieno[2,3-b]pyridine-2-carboxylic acid (4-bromo-3-chloro-phenyl)-amide]: the EC50 is over 25 µM.

As to `Cc1cc(C)c2c(N)c(C(=O)Nc3ccc(F)c(Cl)c3)sc2n1` [Compound 200, 3-Amino-4,6-dimethyl-thieno[2,3-b]pyridine-2-carboxylic acid (3-chloro-4-fluoro-phenyl)-amide], the EC50 is over 25 µM.

As for `Cn1cnc2c(sc3nc4c(cc32)COC(C)(C)C4)c1=O` [Compound 201, 2,8,8-Trimethyl-8,9-dihydro-2H,6H-7-oxa-11-thia-2,4,10-triaza-benzo[b]fluoren-1-one], the EC50 is over 25 µM.

The same assay, now with this note: Dengue virus; Vero cells, MOI 0.1, harvested 48 hours post infection; read-out: Activity (EC50 class) against Dengue-2 Virus in Vero cells.
In the case of `CCN(CC)C(=O)c1sc2nc(C)cc(C)c2c1N` [Compound 167, 3-Amino-4,6-dimethyl-thieno[2,3-b]pyridine-2-carboxylic acid diethylamide], the EC50 is over 25 µM.

Take `Nc1c(C(=O)Nc2ccccc2)sc2nc3c(cc12)CCC3` [Compound 173, 3-Amino-6,7-dihydro-5H-cyclopenta[b]thieno[3,2-e]pyridine-2-carboxylic acid phenylamide]: the EC50 was over 25 µM.

Regarding `CC1(C)Cc2nc3sc4c(=O)n(Cc5ccccc5)cnc4c3cc2CO1` [Compound 174, 2-Benzyl-8,8-dimethyl-8,9-dihydro-2H,6H-7-oxa-11-thia-2,4,10-triaza-benzo[b]fluoren-1-one], the EC50 is over 25 µM.

Regarding `Cc1ccc(NC(=O)c2sc3nc4c(cc3c2N)CCCCC4)cc1` [Compound 175, 3-Amino-6,7,8,9-tetrahydro-5H-1-thia-10-aza-cyclohepta[f]indene-2-carboxylic acid p-tolylamide], the EC50 was over 25 µM.

As for `Nc1c(C(=O)Nc2ccc(F)cc2)sc2nc3c(cc12)CCC3` [Compound 177, 3-Amino-6,7-dihydro-5H-cyclopenta[b]thieno[3,2-e]pyridine-2-carboxylic acid (4-fluoro-phenyl)-amide], the half-maximal effective concentration (EC50) is over 25 µM.

Consider `Cc1cc(C)c2c(N)c(C(=O)Nc3ccc(S(N)(=O)=O)cc3)sc2n1` [Compound 183, 3-Amino-4,6-dimethyl-thieno[2,3-b]pyridine-2-carboxylic acid (4-sulfamoyl-phenyl)-amide], for which the half-maximal effective concentration (EC50) is over 25 µM.

Consider `COCc1cc(C)nc2sc(C(=O)Nc3ccccc3Cl)c(N)c12` [Compound 185, 3-Amino-4-methoxymethyl-6-methyl-thieno[2,3-b]pyridine-2-carboxylic acid (2-chloro-phenyl)-amide], for which the EC50 was over 25 µM.

Take `Cc1cc(C)c2c(N)c(C(=O)Nc3cc(C(F)(F)F)ccc3Cl)sc2n1` [Compound 186, 3-Amino-4,6-dimethyl-thieno[2,3-b]pyridine-2-carboxylic acid (2-chloro-5-trifluoromethyl-phenyl)-amide]: the EC50 is over 25 µM.

For `Nc1c(C(=O)N2CCCCC2)sc2nc3c(cc12)CCC3` [Compound 188, (3-Amino-6,7-dihydro-5H-cyclopenta[b]thieno[3,2-e]pyridin-2-yl)-piperidin-1-yl-methanone], the EC50 was over 25 µM.

`Nc1c(C(=O)N2CCCCC2)sc2nc(-c3cccs3)cc(C(F)(F)F)c12` [Compound 189, (3-Amino-6-thiophen-2-yl-4-trifluoromethyl-thieno[2,3-b]pyridin-2-yl)-piperidin-1-yl-methanone]: the EC50 was over 25 µM.

Turning to `CCc1nnc(NC(=O)c2sc3nc4c(cc3c2N)CCC4)s1` [Compound 190, 3-Amino-6,7-dihydro-5H-cyclopenta[b]thieno[3,2-e]pyridine-2-carboxylic acid (5-ethyl-[1,3,4]thiadiazol-2-yl)-amide], the EC50 is over 25 µM.

Consider `Nc1c(C(=O)N2CCCCC2)sc2nc3c(cc12)CCCCC3` [Compound 191, (3-Amino-6,7,8,9-tetrahydro-5H-1-thia-10-aza-cyclohepta[f]inden-2-yl)-piperidin-1-yl-methanone], for which the EC50 was over 25 µM.

As to `Nc1c(C(=O)Nc2nccs2)sc2nc(-c3ccccc3)cc(C(F)(F)F)c12` [Compound 192, 3-Amino-6-phenyl-4-trifluoromethyl-thieno[2,3-b]pyridine-2-carboxylic acid thiazol-2-ylamide], the EC50 was over 25 µM.

Take `Nc1c(C(=O)Nc2cc(C(F)(F)F)ccc2Cl)sc2nc3c(cc12)CCCC3` [Compound 193, 3-Amino-5,6,7,8-tetrahydro-thieno[2,3-b]quinoline-2-carboxylic acid (2-chloro-5-trifluoromethyl-phenyl)-amide]: the half-maximal effective concentration (EC50) is over 25 µM.

On to `CCc1nnc(NC(=O)c2sc3nc(-c4ccccc4)cc(C(F)(F)F)c3c2N)s1` [Compound 194, 3-Amino-6-phenyl-4-trifluoromethyl-thieno[2,3-b]pyridine-2-carboxylic acid (5-ethyl-[1,3,4]thiadiazol-2-yl)-amide], for which the EC50 is over 25 µM.

For `NC(=O)c1sc2nc3c(c(-c4cccs4)c2c1N)CCCC3` [Compound 195, 3-Amino-4-thiophen-2-yl-5,6,7,8-tetrahydro-thieno[2,3-b]quinoline-2-carboxylic acid amide], the EC50 was over 25 µM.

Turning to `CCN(CC)C(=O)c1sc2nc(-c3ccccc3)cc(C(F)(F)F)c2c1N` [Compound 196, 3-Amino-6-phenyl-4-trifluoromethyl-thieno[2,3-b]pyridine-2-carboxylic acid diethylamide], the EC50 was over 25 µM.

On to `Cc1cc(C)c2c(n1)sc1c(=O)n(-c3cccc(C(F)(F)F)c3)cnc12` [Compound 198, 7,9-Dimethyl-3-(3-trifluoromethyl-phenyl)-3H-pyrido[3′,2′:4,5]thieno[3,2-d]pyrimidin-4-one], for which the concentration giving a half-maximal response (EC50) was over 25 µM.

For `Cc1cc(C)c2c(N)c(C(=O)NCC(=O)O)sc2n1` [Compound 199, [(3-Amino-4,6-dimethyl-thieno[2,3-b]pyridine-2-carbonyl)-amino]-acetic acid], the EC50 is over 25 µM.

Take `C=CCn1cnc2c(sc3nc4c(cc32)COC(C)(C)C4)c1=O` [Compound 202, 2-Allyl-8,8-dimethyl-8,9-dihydro-2H,6H-7-oxa-11-thia-2,4,10-triaza-benzo[b]fluoren-1-one]: the EC50 is over 25 µM.

In the case of `C=C(C)Cn1cnc2c(sc3nc4c(cc32)COC(C)(C)C4)c1=O` [Compound 203, 8,8-Dimethyl-2-(2-methyl-allyl)-8,9-dihydro-2H,6H-7-oxa-11-thia-2,4,10-triaza-benzo[b]fluoren-1-one], the EC50 was over 25 µM.

Turning to `CC(=O)Nc1ccc(NC(=O)c2sc3nc4c(cc3c2N)CCCC4)cc1` [Compound 204, 3-Amino-5,6,7,8-tetrahydro-thieno[2,3-b]quinoline-2-carboxylic acid (4-acetylamino-phenyl)-amide], the EC50 was over 25 µM.
